Laboratory results reported in ChEMBL document CHEMBL3856191, “Structural modifications at the 6-position of thieno[2,3-d]pyrimidines and their effects on potency at FLT3 for treatment of acute myeloid leukemia” (Eur J Med Chem, 2016).

Columns and labels:
[1] = molecular target: Tyrosine-protein kinase Blk (Homo sapiens) (UniProt P51451); experiment: Inhibition of BLK (unknown origin) assessed as remaining activity at 10 uM preincubated for 15 mins followed by substrate addition for 30 mins in presence of [gamma-32P]ATP by […] assay
[2] = molecular target: Receptor-type tyrosine-protein kinase FLT3 (Homo sapiens, UniProt P36888, D835Y)
Description: Inhibition of human FLT3 D835Y mutant preincubated for 15 mins followed by poly(Glu:Tyr) substrate addition for 30 mins in presence of [gamma-32P]ATP by TR-FRET assay

[3] = tested on: Tyrosine-protein kinase ABL1 (Homo sapiens), P00519 [T315I]; experiment: Inhibition of human ABL T315I mutant assessed as remaining activity at 10 uM preincubated for 15 mins followed by poly(Glu:Tyr) substrate addition for 30 mins in presence of [gamma-32P]ATP by […] assay
[4] = molecular target: Tyrosine-protein kinase ABL2 (Homo sapiens) (UniProt P42684); experiment: Inhibition of human recombinant ARG expressed in sf21 cells assessed as remaining activity at 10 uM preincubated for 15 mins followed by Poly(Glu:Tyr) addition measured after 30 mins in presence of [gamma-32P]ATP by […] assay
[5] = molecular target: Mast/stem cell growth factor receptor Kit (Homo sapiens) (UniProt P10721); experiment: Inhibition of recombinant human c-Kit expressed in insect High-5 cells assessed as remaining activity at 10 uM preincubated for 15 mins followed by poly(Glu:Tyr) substrate addition for 30 mins in presence of [gamma-32P]ATP by […] assay; conditions: BTI-TN-5B1-4
[6] = molecular target: Receptor tyrosine-protein kinase erbB-2 (Homo sapiens) (UniProt P04626); experiment: Inhibition of recombinant human ERBB2 expressed in insect cells assessed as remaining activity at 10 uM preincubated for 15 mins followed by poly(Glu:Tyr) substrate addition for 30 mins in presence of [gamma-32P]ATP by […] assay
[7] = molecular target: Fibroblast growth factor receptor 3 (Homo sapiens) (UniProt P22607); experiment: Inhibition of recombinant human FGFR3 expressed in insect Sf21 cells assessed as remaining activity at 10 uM preincubated for 15 mins followed by poly(Glu:Tyr) substrate addition for 30 mins in presence of [gamma-32P]ATP by […] assay
[8] = molecular target: Macrophage colony-stimulating factor 1 receptor (Homo sapiens) (UniProt P07333); experiment: Inhibition of recombinant human FMS expressed in insect Sf21 cells assessed as remaining activity at 10 uM preincubated for 15 mins followed by poly(Glu:Tyr) substrate addition for 30 mins in presence of [gamma-32P]ATP by […] assay
[9] = molecular target: Tyrosine-protein kinase JAK2 (Homo sapiens) (UniProt O60674); experiment: Inhibition of recombinant human JAK2 expressed in insect cells assessed as remaining activity at 10 uM preincubated for 15 mins followed by poly(Glu:Tyr) substrate addition for 30 mins in presence of [gamma-32P]ATP by […] assay
[10] = molecular target: Mitogen-activated protein kinase 10 (Homo sapiens) (UniProt P53779); experiment: Inhibition of recombinant human JNK3 expressed in insect Sf21 cells assessed as remaining activity at 10 uM preincubated for 15 mins followed by ATF2 substrate addition for 30 mins in presence of [gamma-32P]ATP by […] assay
[11] = molecular target: Dual specificity mitogen-activated protein kinase kinase 1 (Homo sapiens) (UniProt Q02750); experiment: Inhibition of recombinant human MEK1 expressed in Escherichia coli assessed as remaining activity at 10 uM preincubated for 15 mins followed by myelin basic protein substrate addition for 30 mins in presence of [gamma-32P]ATP by […] assay
[12] = molecular target: Dual specificity mitogen-activated protein kinase kinase 7 (Homo sapiens) (UniProt O14733); experiment: Inhibition of human MKK7beta assessed as remaining activity at 10 uM in presence of [gamma-32P]ATP by […] assay
[13] = molecular target: Serine/threonine-protein kinase mTOR (Homo sapiens) (UniProt P42345); experiment: Inhibition of human mTOR assessed as remaining activity at 10 uM in presence of [gamma-32P]ATP by […] assay
[14] = molecular target: PI3-kinase p110-delta/p85-alpha (Homo sapiens) (UniProt P27986+O00329); experiment: Inhibition of PI3K p110delta/p85alpha (unknown origin) assessed as remaining activity at 10 uM in presence of [gamma-32P]ATP by […] assay; type: protein-complex assay
[15] = molecular target: Serine/threonine-protein kinase pim-1 (Homo sapiens) (UniProt P11309); experiment: Inhibition of recombinant human PIM1 expressed in Escherichia coli assessed as remaining activity at 10 uM preincubated for 15 mins followed by S6 kinase/Rsk2 substrate peptide 2 addition for 30 mins in presence of [gamma-32P]ATP by […] assay
[16] = molecular target: Protein kinase C alpha type (Homo sapiens) (UniProt P17252); experiment: Inhibition of recombinant human PKC-alpha expressed in insect Sf9 cells assessed as remaining activity at 10 uM preincubated for 15 mins followed by Histone substrate addition for 30 mins in presence of [gamma-32P]ATP by […] assay
[17] = molecular target: Proto-oncogene tyrosine-protein kinase receptor Ret (Homo sapiens) (UniProt P07949); experiment: Inhibition of recombinant human RET expressed in insect Sf21 cells assessed as remaining activity at 10 uM preincubated for 15 mins followed by poly(Glu:Tyr) substrate addition for 30 mins in presence of [gamma-32P]ATP by […] assay
[18] = molecular target: Tyrosine-protein kinase SYK (Homo sapiens) (UniProt P43405); experiment: Inhibition of recombinant human SYK expressed in insect Sf21 cells assessed as remaining activity at 10 uM preincubated for 15 mins followed by poly(Glu:Tyr) substrate addition for 30 mins in presence of [gamma-32P]ATP by […] assay
[19] = molecular target: Non-receptor tyrosine-protein kinase TYK2 (Homo sapiens) (UniProt P29597); experiment: Inhibition of human TYK2 assessed as remaining activity at 10 uM in presence of [gamma-32P]ATP by […] assay
[20] = molecular target: Angiopoietin-1 receptor (Homo sapiens, UniProt Q02763); experiment: Inhibition of human TIE2 preincubated for 15 mins followed by substrate addition measured after 30 mins in presence of [gamma-32P]ATP by […] assay
[21] = Solubility of the compound in PBS at pH 7.4 after 1 hr by HPLC-MS analysis; type: physicochemical
[22] = Clearance in Sprague-Dawley rat at 5 mg/kg, iv up to 24 hrs by LC/MS/MS analysis; type: ADME, organism-based; conditions: in vivo
[23] = Cmax in Sprague-Dawley rat at 30 mg/kg, po by LC/MS/MS analysis; type: ADME, organism-based; design: dose 30 mg/kg, route oral; conditions: in vivo
[24] = Elimination half life in Sprague-Dawley rat at 30 mg/kg, po by LC/MS/MS analysis; type: ADME, organism-based; conditions: in vivo, read-out: beta t1/2 (converted)
[25] = cells; conditions: Homo sapiens, HL-60, 48 h
Description: Growth inhibition of human HL60 cells expressing wild type FLT-3 after 48 hrs by XTT assay

[26] = cells; conditions: Homo sapiens, MV4-11, 48 h
Description: Growth inhibition of human MV4-11 cells expressing FLT3-ITD after 48 hrs by XTT assay

Sequence of Macrophage colony-stimulating factor 1 receptor (Homo sapiens) (P07333 whole entry): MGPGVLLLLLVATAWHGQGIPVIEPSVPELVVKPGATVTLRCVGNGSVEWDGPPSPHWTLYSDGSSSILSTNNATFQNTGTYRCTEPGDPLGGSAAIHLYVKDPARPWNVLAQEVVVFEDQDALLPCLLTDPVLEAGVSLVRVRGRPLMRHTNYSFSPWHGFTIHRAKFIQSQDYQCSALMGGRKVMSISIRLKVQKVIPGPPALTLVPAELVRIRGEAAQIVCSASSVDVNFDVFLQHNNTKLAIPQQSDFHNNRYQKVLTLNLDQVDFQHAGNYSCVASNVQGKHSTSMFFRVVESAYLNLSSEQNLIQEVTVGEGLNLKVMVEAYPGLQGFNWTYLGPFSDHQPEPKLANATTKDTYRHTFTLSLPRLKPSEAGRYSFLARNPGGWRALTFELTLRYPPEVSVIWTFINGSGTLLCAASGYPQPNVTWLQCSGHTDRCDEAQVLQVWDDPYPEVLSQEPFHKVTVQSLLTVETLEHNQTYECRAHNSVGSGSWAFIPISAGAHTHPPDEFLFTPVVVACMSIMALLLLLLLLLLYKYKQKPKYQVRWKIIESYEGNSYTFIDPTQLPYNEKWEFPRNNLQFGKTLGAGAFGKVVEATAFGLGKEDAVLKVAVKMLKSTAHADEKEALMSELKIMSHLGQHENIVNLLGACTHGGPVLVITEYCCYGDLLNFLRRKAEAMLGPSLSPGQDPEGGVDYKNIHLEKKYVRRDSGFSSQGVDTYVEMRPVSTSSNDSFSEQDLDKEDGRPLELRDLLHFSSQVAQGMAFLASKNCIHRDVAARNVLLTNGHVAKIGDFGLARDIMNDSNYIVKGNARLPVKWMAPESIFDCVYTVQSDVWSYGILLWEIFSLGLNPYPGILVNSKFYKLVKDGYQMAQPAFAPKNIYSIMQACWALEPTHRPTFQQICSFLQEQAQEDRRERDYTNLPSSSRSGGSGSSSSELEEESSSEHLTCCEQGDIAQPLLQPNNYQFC
Sequence of Non-receptor tyrosine-protein kinase TYK2 (Homo sapiens) (P29597 whole entry): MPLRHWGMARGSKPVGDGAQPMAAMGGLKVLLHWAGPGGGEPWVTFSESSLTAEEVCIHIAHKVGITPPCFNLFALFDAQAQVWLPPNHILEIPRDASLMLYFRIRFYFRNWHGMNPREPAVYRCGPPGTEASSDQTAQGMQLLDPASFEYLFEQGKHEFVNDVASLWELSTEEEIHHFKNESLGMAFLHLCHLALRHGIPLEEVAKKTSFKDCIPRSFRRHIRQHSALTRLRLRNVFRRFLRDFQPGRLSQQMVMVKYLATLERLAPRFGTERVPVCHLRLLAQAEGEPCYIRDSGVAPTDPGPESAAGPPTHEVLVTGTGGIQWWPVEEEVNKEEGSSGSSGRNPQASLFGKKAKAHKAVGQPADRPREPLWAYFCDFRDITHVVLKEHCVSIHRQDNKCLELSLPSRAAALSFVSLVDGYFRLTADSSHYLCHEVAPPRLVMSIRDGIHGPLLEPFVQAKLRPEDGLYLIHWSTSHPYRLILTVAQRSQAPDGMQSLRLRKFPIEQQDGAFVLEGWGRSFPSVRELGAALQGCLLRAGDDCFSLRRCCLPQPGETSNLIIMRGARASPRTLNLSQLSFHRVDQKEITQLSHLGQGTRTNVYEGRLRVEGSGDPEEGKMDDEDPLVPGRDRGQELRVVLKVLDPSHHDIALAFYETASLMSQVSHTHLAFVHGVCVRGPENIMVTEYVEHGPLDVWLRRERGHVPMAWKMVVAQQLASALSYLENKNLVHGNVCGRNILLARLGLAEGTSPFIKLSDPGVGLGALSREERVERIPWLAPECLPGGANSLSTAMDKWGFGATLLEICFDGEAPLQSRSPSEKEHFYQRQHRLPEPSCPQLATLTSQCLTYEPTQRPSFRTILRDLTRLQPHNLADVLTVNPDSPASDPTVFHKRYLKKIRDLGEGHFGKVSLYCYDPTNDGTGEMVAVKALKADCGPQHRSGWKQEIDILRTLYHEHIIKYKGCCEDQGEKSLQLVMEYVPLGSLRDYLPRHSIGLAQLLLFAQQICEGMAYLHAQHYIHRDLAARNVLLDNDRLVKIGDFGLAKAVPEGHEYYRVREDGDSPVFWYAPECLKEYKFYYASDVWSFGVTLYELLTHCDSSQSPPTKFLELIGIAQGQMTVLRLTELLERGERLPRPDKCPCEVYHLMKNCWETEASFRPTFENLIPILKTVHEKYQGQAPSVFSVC
Sequence of Tyrosine-protein kinase Blk (Homo sapiens) (P51451 2-505 limits assumed): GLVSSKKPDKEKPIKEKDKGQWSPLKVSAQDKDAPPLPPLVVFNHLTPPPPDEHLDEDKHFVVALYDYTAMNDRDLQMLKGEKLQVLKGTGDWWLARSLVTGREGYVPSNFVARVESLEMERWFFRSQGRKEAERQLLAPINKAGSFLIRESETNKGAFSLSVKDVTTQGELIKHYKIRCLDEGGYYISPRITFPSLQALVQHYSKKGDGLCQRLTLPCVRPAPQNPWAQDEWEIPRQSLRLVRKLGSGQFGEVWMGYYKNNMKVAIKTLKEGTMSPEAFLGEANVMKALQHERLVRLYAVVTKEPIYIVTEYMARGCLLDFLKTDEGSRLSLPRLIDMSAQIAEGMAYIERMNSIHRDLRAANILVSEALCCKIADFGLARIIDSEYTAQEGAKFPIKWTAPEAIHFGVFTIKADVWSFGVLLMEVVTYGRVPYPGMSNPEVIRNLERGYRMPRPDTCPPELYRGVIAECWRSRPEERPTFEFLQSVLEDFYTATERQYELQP
Sequence of Tyrosine-protein kinase ABL2 (Homo sapiens) (P42684 whole entry): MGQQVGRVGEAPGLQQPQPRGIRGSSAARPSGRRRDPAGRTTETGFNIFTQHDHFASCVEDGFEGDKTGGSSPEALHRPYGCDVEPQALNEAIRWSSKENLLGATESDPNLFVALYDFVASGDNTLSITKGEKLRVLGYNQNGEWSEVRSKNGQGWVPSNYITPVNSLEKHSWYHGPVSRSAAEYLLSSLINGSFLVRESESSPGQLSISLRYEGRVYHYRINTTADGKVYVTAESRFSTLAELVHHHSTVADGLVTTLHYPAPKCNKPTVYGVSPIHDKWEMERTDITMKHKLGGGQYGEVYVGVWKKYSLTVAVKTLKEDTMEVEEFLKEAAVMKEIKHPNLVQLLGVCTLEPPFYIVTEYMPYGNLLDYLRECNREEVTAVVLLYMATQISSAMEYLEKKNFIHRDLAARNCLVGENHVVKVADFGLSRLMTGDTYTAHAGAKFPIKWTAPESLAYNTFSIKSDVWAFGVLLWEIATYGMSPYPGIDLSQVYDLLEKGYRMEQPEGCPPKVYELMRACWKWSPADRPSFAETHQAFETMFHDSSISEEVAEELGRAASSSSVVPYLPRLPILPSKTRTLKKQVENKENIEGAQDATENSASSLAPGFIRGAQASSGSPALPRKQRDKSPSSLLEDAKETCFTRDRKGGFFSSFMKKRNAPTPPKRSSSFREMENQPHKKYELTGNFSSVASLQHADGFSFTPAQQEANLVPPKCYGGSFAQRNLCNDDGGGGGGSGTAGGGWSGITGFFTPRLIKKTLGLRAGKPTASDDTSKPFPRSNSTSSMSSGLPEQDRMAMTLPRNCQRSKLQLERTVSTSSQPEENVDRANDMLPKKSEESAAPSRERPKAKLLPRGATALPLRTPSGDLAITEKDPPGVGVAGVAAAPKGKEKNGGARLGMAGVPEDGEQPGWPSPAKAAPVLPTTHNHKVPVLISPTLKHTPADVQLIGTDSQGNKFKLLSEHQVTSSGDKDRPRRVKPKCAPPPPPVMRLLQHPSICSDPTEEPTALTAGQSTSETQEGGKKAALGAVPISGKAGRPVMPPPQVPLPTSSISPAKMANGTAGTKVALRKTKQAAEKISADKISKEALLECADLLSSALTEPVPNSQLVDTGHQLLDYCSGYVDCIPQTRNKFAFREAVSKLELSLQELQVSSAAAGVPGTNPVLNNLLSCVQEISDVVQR
Sequence of Dual specificity mitogen-activated protein kinase kinase 7 (Homo sapiens) (O14733 whole entry): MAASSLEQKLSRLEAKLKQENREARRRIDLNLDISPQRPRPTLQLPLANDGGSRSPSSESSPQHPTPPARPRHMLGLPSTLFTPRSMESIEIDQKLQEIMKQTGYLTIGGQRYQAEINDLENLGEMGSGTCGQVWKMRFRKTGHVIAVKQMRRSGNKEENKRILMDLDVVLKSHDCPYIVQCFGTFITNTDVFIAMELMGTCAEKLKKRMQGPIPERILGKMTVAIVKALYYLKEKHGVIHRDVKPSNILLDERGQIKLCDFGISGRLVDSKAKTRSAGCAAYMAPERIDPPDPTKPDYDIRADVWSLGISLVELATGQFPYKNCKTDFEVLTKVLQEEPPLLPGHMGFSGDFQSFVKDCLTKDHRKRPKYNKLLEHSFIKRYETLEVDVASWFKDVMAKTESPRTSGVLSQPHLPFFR

Q: What does the source list for `CNCCOc1ccc(-c2sc3nc(-c4cccs4)nc(NN4C(=O)C=C(C)C4=O)c3c2C)cc1.Cl`?
A: Activity [1]: 35%; IC50 [2]: 10.2 nM; Activity [3]: 44%; Activity [4]: 52%; Activity [5]: 75%; Activity [6]: 89%; Activity [7]: 72%; Activity [8]: 78%; Activity [9]: 99%; Activity [10]: 96%; Activity [11]: 103%; Activity [12]: 111%; Activity [13]: 79%; Activity [14]: 37%; Activity [15]: 46%; Activity [16]: 81%; Activity [17]: 42%; Activity [18]: 80%; Activity [19]: 67%; IC50 [20]: 9750 nM; solubility at 1 h [21]: 2.96 µM; clearance [22]: 36.6 mL/min/kg; Cmax [23]: 420 ng/mL; half-life [24]: 15.2 h; GI50 [25]: 250 nM; GI50 [26]: 540 nM
